Measured values as given in patent US8044018B2, “Reagents and methods for smooth muscle therapies” (Arizona Board of Regents, priority 2008, dated 2011).
Non-standard residues stand in square brackets, D forms with d. No end group written: not given here. *: point of attachment. FITC = O=C1OC2(c3ccc(O)cc3Oc3cc(O)ccc32)c2ccc(NC(=S)*)cc21; Fmoc = O=C(OCC1c2ccccc2-c2ccccc21)*; pS = N[C@@H](COP(=O)(O)O)C(=O)O; βAla = NCCC(=O)O

Assays:
[1] = tested on: bovine carotid artery smooth muscle; assay: Muscle bath: serotonin pre-contracted strips of bovine carotid artery, denuded of endothelium; settings: cumulative doses added every 10 minutes; n=5
Experimental: Transverse strips of bovine carotid artery smooth muscle, denuded of endothelium, were suspended in a muscle bath containing bicarbonate buffer (120 mM NaCl, 4.7 mM KCl, 1.0 mM MgSO4, 1.0 mM NaH2PO4, 10 mM glucose, 1.5 mM CaCl2, and 25 mM […], pH 7.4), equilibrated with 95% O2/5% CO2, at 37° C. at one gram of tension for 2 hours. The muscles were pre-contracted with serotonin ([…] for 10 minutes) and cumulative doses of FITC-phosphoHSP20-TAT, FITC-scrambled phosphoHSP20-TAT (FITC-NH2-β[…]*LWALGRPLA-COOH, open circles) (SEQ ID NO:305), or FITC-TAT (FITC-NH2-β[…], closed triangles) (SEQ ID NO:306) were added every 10 minutes. The force is depicted as a percentage of the maximal serotonin contraction (n=5, *=p<0.05 compared to 0 peptide added). Representative strips were fixed in 4% paraformaldehyde and examined under fluorescence microscopy (40× magnification).

[2] = tested on: Rat aortic smooth muscle cells; assay: LPA-induced actin fiber formation, phalloidin staining and confocal microscopy; format: cell-based
Experimental: Rat aortic smooth muscle cells were treated with lyophosphatidic acid (LPA) in the presence and absence of FITC-TAT-pHSP20 (FITC-NH2-β[…]*APLPGLK-COOH, 50 uM) (SEQ ID NO:307) Lysophosphatidic acid (LPA) is a substance which promotes actin fiber formation.
The cells were fixed and stained with phalloidin and images were obtained with confocal microscopy. […] These studies confirm that HSP20 has a direct role in modulating actin fiber formation.

[3] = tested on: Mesangial cells; assay: Wrinkle assay: mesangial cells on silicone substrata treated with phosphopeptide; format: cell-based; settings: 50 μM peptide; plated 48 hours in serum; phase contrast microscopy; n=10
Experimental: Mesangial cells were plated on a silicone substrata in the presence of serum and after 48 hours the cells were treated with the FITC-TAT-HSP20 phosphopeptide (50 μM). The number of wrinkles under the cells was determined at the time points indicated using phase contrast microscopy (n=10, *=p<0.05 compared to time 0). Results of this Experiment are illustrated in FIG. 2.

[4] = tested on: Bovine aortic endothelial cells; assay: Focal adhesion disassembly, interference reflection microscopy; format: cell-based; settings: HSP20 peptides 10 uM for 30 minutes; serum starved one hour
Experimental: Bovine aortic endothelial cells were plated on glass coverslips (80K-100K cells) in DMEM plus 10% FBS over night (24 wells plate). The cells were serum starved (no serum) for one hour and incubated in the presence of the peptide analogues of HSP20 [NH2-βAYARRAAARQARAWLRRAS*APLPGLK-COOH-pHSP20 (10 uM) (SEQ ID NO:307) or scrambled analogues of HSP20 [NH2-βAYARRAAARQARAPRKS*LWALGRPLA-COOH-scHSP20 (10 uM)] (SEQ ID NO:308) for 30 minutes. The cells were fixed with 3% glutaraldehyde and the number of focal adhesions was detected with interference reflection microscopy. The Hep I peptide was used as a positive control. This peptide binds to the heparin binding site of thrombospondin in induces focal adhesion disassembly. […] The results are illustrated in FIG. 7.

[5] = tested on: A10 cells; assay: Serum-induced proliferation, cell counts; format: cell-based; settings: 50 μM in 10% FBS; 24 hours; serum starved 3 days beforehand
Experimental: A10 cells were serum starved for 3 days. The cells were then treated with media containing 10% fetal bovine serum, PTD-pHSP20 (NH2-βAYARRAAARQARAWLRRAS*APLPGLK-COOH (SEQ ID NO:307), or PTD-scrambled-pHSP20 (NH2-βAYARRAAARQARAPRKS*LWALGRPLA-COOH (SEQ ID NO:308) (50 μM). After 24 hours cell counts were performed. The number of cells per well in the serum starved plates averaged […] (+/−7.4) compared to 276+/−6.1 in wells containing 10% fetal bovine serum (FBS). In the presence of FBS, the phosphopeptide analogues of HSP20 containing a transduction domain inhibited of smooth muscle proliferation, 149+/−14.6 compared to transduction of the scrambled phosphopeptide analogue of HSP20 (242.3+/−15.3 cells/well). The results of these experiments are illustrated in FIG. 9.

[6] = tested on: Mesangial cells; assay: Actin filament staining (rhodamine phalloidin) of transfected mesangial cells; format: cell-based; settings: 10 μM for 30 minutes; cells transfected with EGFP alone or S16A-HSP20
From the text: Transfected mesangial cells were fixed and the actin filaments were stained with fluorescent-labeled phalloidin.

[7] = tested on: Mesangial cells; assay: Wrinkle assay: mesangial cells transfected with GFP, WT HSP20 or S16A-HSP20, on silicone rubber substrata; format: cell-based; settings: dibutyryl cAMP 10 ΦM, 0-90 minutes
Experimental: The experiment was performed in the following fashion: Mesangial cells were transfected with vectors containing green fluorescent protein (GFP) alone, GFP fused to the 5′ end of the wild type cDNA for HSP20 (WT), or GFP fused to an HSP20 construct in which the PKA phosphorylation site was mutated to an alanine (S16A-HSP20) (MUT). The cells were plated on a silicone rubber substrata in the presence of serum for 48 hours. The plates were then placed on the stage of a Zeiss Inverted Fluorescence Microscope with DeltaVision image acquisition and deconvolution software (Applied Precision, Issaquah, Wash.). The DeltaVision software was configured to eight different cells (x and y axis) on each plate with 7 z-axis images taken at […] intervals. Fluorescent and phase contrast images were obtained such that the cells and silicone membrane were imaged in close succession. During the scanning process, the z-axis of each cell was monitored to assure that the imaging stacks were maintained at the appropriate level as the cells relaxed on the silicone membrane. Baseline images were acquired for one hour. The cells were then treated with […] dibutyryl cAMP (10 ΦM) for 0 minutes, 30 minutes, 60 minutes, or 90 minutes, and the results are illustrated in FIG. 1. […]

[8] = tested on: PKG transfected rat aortic smooth muscle cells; assay: Wrinkle assay: PKG transfected rat aortic smooth muscle cells on silicone substrata; format: cell-based; settings: 10 uM for 30 minutes
Experimental: Rat aortic smooth muscle cells that are multiply passaged or that stably express PKG were cultured on a silicone substrata in the presence of serum. The cells were imaged with phase contrast microscopy (10× magnification). […] To determine if the wrinkles were reversible, PKG transfected cells were treated with dibutyryl cAMP (10 uM) for 30 minutes.

[9] = tested on: rabbit aorta; assay: Muscle bath: rabbit aorta rings pre-contracted with norepinephrine, endothelium not denuded; settings: pre-contracted with norepinephrine 10^−7 M; for relaxation and inhibition of spasm: peptides retained the Fmoc moiety
Experimental: Rings of rabbit aorta in which the endothelium was not denuded, were suspended in a muscle bath containing bicarbonate buffer (120 mM NaCl, 4.7 mM KCl, 1.0 mM MgSO4, 1.0 mM NaH2PO4, 10 mM glucose, 1.5 mM CaCl2, and 25 mM […], pH 7.4), equilibrated with 95% O2/5% CO2, at 37° C. at one gram of tension for 2 hours. The rings were pre-contracted with norepinephrine (10^−7 M) and treated with RRRRRRApSAPLP (SEQ ID NO:309) or RRRRWLRRApSAPLP (SEQ ID NO:310). […] The peptides used were prepared by Fmoc-based peptide synthesis, and the peptides retained the Fmoc moiety at the amino terminus of the peptide.

Which “contractile force as percentage of the maximal serotonin contraction” value (“contractile force as percentage” for short) [1] does the source give for “NH2-βAGGGGYGRKKRRQRRRWLRRAS*APLPGLK-COOH ([βAla]GGGGYGRKKRRQRRRWLRRA[pS]APLPGLK-OH; not fully specified (N-terminus); printed as NH2-βAGGGGYGRKKRRQRRRWLRRAS*APLPGLK-COOH; also: FITC label, position not given here) [FITC-TAT-HSP20]” here?
Its value is “dose dependent decrease”.

What about the “central actin stress fibers” value ([2]; LPA in the presence of peptide, 50 uM) of the same compound?
Its value is “loss of central actin stress fibers”.

And the “number of wrinkles under the cells (relaxation of the cells)” value [3]?
The value was “time dependent loss of wrinkles”.

For “NH2-βAYARRAAARQARAPRKS*LWALGRPLA-COOH (AYARRAAARQARAPRKSLWALGRPLA; HELM PEPTIDE1{[bAla].Y.A.R.R.A.A.A.R.Q.A.R.A.P.R.K.[O=C([C@H](COP(=O)(O)O)N[*:1])[*:2]].L.W.A.L.G.R.P.L.A}$$$$V2.0; SMILES CC(C)C[C@H](NC(=O)[C@H](C)NC(=O)[C@H](Cc1c[nH]c2ccccc12)NC(=O)[C@H](CC(C)C)NC(=O)[C@H](COP(=O)(O)O)NC(=O)[C@H](CCCCN)NC(=O)[C@H](CCCNC(=N)N)NC(=O)[C@@H]1CCCN1C(=O)[C@H](C)NC(=O)[C@H](CCCNC(=N)N)NC(=O)[C@H](C)NC(=O)[C@H](CCC(N)=O)NC(=O)[C@H](CCCNC(=N)N)NC(=O)[C@H](C)NC(=O)[C@H](C)NC(=O)[C@H](C)NC(=O)[C@H](CCCNC(=N)N)NC(=O)[C@H](CCCNC(=N)N)NC(=O)[C@H](C)NC(=O)[C@H](Cc1ccc(O)cc1)NC(=O)CCN)C(=O)NCC(=O)N[C@@H](CCCNC(=N)N)C(=O)N1CCC[C@H]1C(=O)N[C@@H](CC(C)C)C(=O)N[C@@H](C)C(=O)O) [PTD-scrambled-pHSP20, Scrambled analogue of the HSP20 phosphopeptide with PTD, control, reference compound]”, which “focal adhesion disassembly (number of focal adhesions)” value [4] is on record?
Its value is “no significant effect”.

And the “number of cells per well” value [5]?
Its value is 242.3+/−15.3 cells/well.

For CCCC(=O)Nc1ncnc2c1ncn2[C@@H]1O[C@@H]2COP(=O)(O)O[C@H]2[C@H]1OC(=O)CCC [dibutyryl cAMP], which “central actin stress fibers” value [6] is on record?
The value was “loss of central actin stress fibers in EGFP but not S16A-HSP20 cells”.

What about the “wrinkles under the cells (relaxation)” value ([7]; cells expressing S16A-HSP20 (MUT)) of the same compound?
The value was “did not relax”.

What about the “wrinkles under the cells (relaxation)” value ([7]; control cells expressing GFP) of the same compound?
The value was “relaxed over time”.

What about the wrinkle formation [8] of the same compound?
The wrinkle formation was “decrease in wrinkle formation”.

For “FITC-NH2-βAGGGGYGRKKRRQRRRPRKS*LWALGRPLA-COOH ({FITC}-[βAla]GGGGYGRKKRRQRRRPRK[pS]LWALGRPLA-OH) [FITC-scrambled phosphoHSP20-TAT]”, which “contractile force as percentage” value [1] is on record?
Its value is “no significant effect”.

RRRRRRApSAPLP (Fmoc-RRRRRRA[pS]APLP) was tested. Which “speed and duration of relaxation compared with the longer peptides” value [9] did it give?
Its value is “relaxation was faster and the muscles remained in a relaxed state for longer”.

And the “relaxation and inhibition of spasm” value [9]?
The value was “rapid and complete relaxation and inhibition of spasm”.

Which results are given for “RRRRWLRRApSAPLP (Fmoc-RRRRWLRRA[pS]APLP)”?
speed and duration of relaxation compared with the longer peptides [9]: relaxation was faster and the muscles remained in a relaxed state for longer; relaxation and inhibition of spasm [9]: rapid and complete relaxation and inhibition of spasm

“Lysophosphatidic acid [LPA, reference compound]” was tested. Which “actin stress fiber formation” value ([2]; LPA alone) did it give?
Its value is “robust actin stress fiber formation”.

“FITC-NH2-βAGGGGYGRKKRRQRRR ({FITC}-[βAla]GGGGYGRKKRRQRRR) [FITC-TAT, FITC-labelled TAT transduction domain alone, control]” was tested. Which “contractile force as percentage” value [1] did it give?
The value was “no significant effect”.
